Values quoted from earlier work, collected in patent publication US20050255161A1, “Method for the long term stabilization of labile compounds at room temperature in pharmaceutical preparations containing water” (priority 2004, published 2005).
Where two headings read alike, the source gives them in different places.

CCCCC[C@H](O)/C=C/[C@H]1[C@H](O)CC(=O)[C@@H]1CCCCCCC(=O)O [prostaglandin E1, (13E)-(15S)-11alpha, 15-dihydroxy-9-oxoprost-13-enoate]
solubility in aqueous systems (low acidic medium): ~10 μg's | solubility in aqueous systems (slightly alkaline medium): ~100 μg's
